Data published in publication PMC12435844, “cGAS activation converges with intracellular acidification to promote STING aggregation and pyroptosis in tumor models” (The Journal of Clinical Investigation, 2025).
One block for each compound: values may come before it.

Assays:
cyclophilin D (CypD) [1] = molecular target: T1, cyclophilin D (CypD) (Homo sapiens, UniProt P30405); assay: SPR; also FL-DSF (KD […]) and CETSA on immunoprecipitated CypD; assay type: binding
T1 construct: gene PPIF

cyclophilin D (CypD) [2] = molecular target: T1, cyclophilin D (CypD); assay: photoactive click probe in A375 cells, azide-biotin conjugation, streptavidin pull-down and Western blot; assay type: cell-based
STING = STING (UniProt Q86WV6); assay: co-immunoprecipitation; conditions: reference: PERK wild type; sites T982

T1 sequence (P30405 30-207): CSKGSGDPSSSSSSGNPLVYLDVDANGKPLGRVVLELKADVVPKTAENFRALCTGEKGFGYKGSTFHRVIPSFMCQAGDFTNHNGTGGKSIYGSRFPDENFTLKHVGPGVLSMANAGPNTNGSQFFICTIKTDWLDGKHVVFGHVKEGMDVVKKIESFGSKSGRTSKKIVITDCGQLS

Kd (cyclophilin D (CypD) [1]): 1190 ± 68 nM
Compound: CCCCCCCCCCCCOC(=O)c1ccc2cc(O)ccc2c1 [DHN, dodecyl 6-hydroxy-2-naphthoate]

Compound: C#CCCC1(CC(=O)OCCCCCOC(=O)c2ccc3cc(O)ccc3c2)N=N1 [DHN-P]
photoactive click probe in A375 cells, azide-biotin conjugation, streptavidin pu (cyclophilin D (CypD) [2]): DHN-P could effectively pull down CypD but not other components in the mPTP complex

Compound: PERK (from UniProt Q9NZJ5) PERK T982A
binding against the reference (STING): lost
